Where two headings read alike, the source gives them in different places.
Experiments:
Test in all cases: Test A preemergence
Format in all cases: in vivo
Kochia (Kochia scoparia) = settings: Bassia scoparia, pre-emergence, 240 h; for pest or weed control at 125 g/ha: 125 g ai/ha; for pest or weed control at 500 g/ha: 500 g ai/ha
In short: (§1)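 In a loam soil and sand blend, planted seeds got a preemergence directed soil spray, and young plants at the one- to two-leaf stage, 2–10 cm high, got a postemergence application; ~10 d greenhouse hold; injury rated visually, 0 = none, 100 = complete control.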

[1] = test system: giant foxtail (Setaria faberii); settings: Setaria faberi, pre-emergence, 240 h; for pest or weed control at 125 g/ha: 125 g ai/ha; for pest or weed control at 500 g/ha: 500 g ai/ha
In short: as §1

[2] = test system: pigweed (Amaranthus retroflexus); settings: Amaranthus retroflexus, pre-emergence, 240 h; for pest or weed control at 125 g/ha: 125 g ai/ha; for pest or weed control at 500 g/ha: 500 g ai/ha
[3] = test system: ragweed (common ragweed, Ambrosia elatior); settings: Ambrosia artemisiifolia, pre-emergence, 240 h; for pest or weed control at 125 g/ha: 125 g ai/ha; for pest or weed control at 500 g/ha: 500 g ai/ha
In short: as §1

[4] = test system: ryegrass, Italian (Italian ryegrass, Lolium multiflorum); settings: Lolium multiflorum, pre-emergence, 240 h; for pest or weed control at 125 g/ha: 125 g ai/ha; for pest or weed control at 500 g/ha: 500 g ai/ha
In short: as §1

[5] = preemergence, 0 to 100 scale where 0 is no effect and 100 is complete control, read-out: Kochia plant response rating
[6] = Preemergence, visual injury vs untreated controls after approximately 10 d, read-out: Kochia plant response rating (0 to 100 scale where 0 is no effect and 100 is complete control)
[7] = preemergence, 0 to 100 scale where 0 is no effect and 100 is complete control, read-out: Foxtail, Giant plant response rating
[8] = Preemergence, visual injury vs untreated controls after approximately 10 d, read-out: Foxtail, Giant plant response rating (0 to 100 scale where 0 is no effect and 100 is complete control)
[9] = preemergence, 0 to 100 scale where 0 is no effect and 100 is complete control, read-out: Pigweed plant response rating
[10] = Preemergence, visual injury vs untreated controls after approximately 10 d, read-out: Pigweed plant response rating (0 to 100 scale where 0 is no effect and 100 is complete control)
[11] = preemergence, 0 to 100 scale where 0 is no effect and 100 is complete control, read-out: Ragweed plant response rating
[12] = Preemergence, visual injury vs untreated controls after approximately 10 d, read-out: Ragweed plant response rating (0 to 100 scale where 0 is no effect and 100 is complete control)
[13] = preemergence, 0 to 100 scale where 0 is no effect and 100 is complete control, read-out: Ryegrass, Italian plant response rating
[14] = Preemergence, visual injury vs untreated controls after approximately 10 d, read-out: Ryegrass, Italian plant response rating (0 to 100 scale where 0 is no effect and 100 is complete control)
[15] = preemergence, 0 to 100 scale where 0 is no effect and 100 is complete control, approx. 10 d, read-out: Kochia plant response rating
[16] = preemergence, 0 to 100 scale where 0 is no effect and 100 is complete control, approx. 10 d, read-out: Foxtail, Giant plant response rating
[17] = preemergence, 0 to 100 scale where 0 is no effect and 100 is complete control, approx. 10 d, read-out: Pigweed plant response rating
[18] = preemergence, 0 to 100 scale where 0 is no effect and 100 is complete control, approx. 10 d, read-out: Ragweed plant response rating
[19] = preemergence, 0 to 100 scale where 0 is no effect and 100 is complete control, approx. 10 d, read-out: Ryegrass, Italian plant response rating

Structure (SMILES)	pest or weed control at 125 g/ha (Kochia (Kochia scoparia); [5])	pest or weed control at 500 g/ha (Kochia (Kochia scoparia); [6])	pest or weed control at 125 g/ha [1, 7]	pest or weed control at 500 g/ha [1, 8]	pest or weed control at 125 g/ha [2, 9]	pest or weed control at 500 g/ha [2, 10]	pest or weed control at 125 g/ha [3, 11]	pest or weed control at 500 g/ha [3, 12]	pest or weed control at 125 g/ha [4, 13]	pest or weed control at 500 g/ha [4, 14]	also measured
O=C1NC[C@H](c2ccc(F)c(OC(F)(F)C(F)(F)Br)c2)[C@H]1C(=O)Nc1cccc(F)c1F (racemic) [Compound 914]	60%	60%	90%	90%	90%	90%	0%	0%	0%	60%	–
Cc1cc([C@H]2CN(C)C(=O)[C@@H]2C(=O)Nc2ccccc2F)ccc1Br [Compound 1098]	–	–	–	–	–	–	–	–	–	–	pest or weed control at 125 g/ha (Kochia (Kochia scoparia); [15]): 20%; pest or weed control at 500 g/ha (Kochia (Kochia scoparia); preemergence, visual injury rating about 10 d after treatment, 0 to 100 scale (0 no effect, 100 complete control), read-out: Kochia plant response rating): 70%; pest or weed control at 125 g/ha [1, 16]: 90%; pest or weed control at 500 g/ha ([1]; preemergence, visual injury rating about 10 d after treatment, 0 to 100 scale (0 no effect, 100 complete control), read-out: Foxtail, Giant plant response rating): 90%; pest or weed control at 125 g/ha [2, 17]: 0%; pest or weed control at 500 g/ha ([2]; preemergence, visual injury rating about 10 d after treatment, 0 to 100 scale (0 no effect, 100 complete control), read-out: Pigweed plant response rating): 0%; pest or weed control at 125 g/ha [3, 18]: 0%; pest or weed control at 500 g/ha ([3]; preemergence, visual injury rating about 10 d after treatment, 0 to 100 scale (0 no effect, 100 complete control), read-out: Ragweed plant response rating): 0%; pest or weed control at 125 g/ha [4, 19]: 20%; pest or weed control at 500 g/ha ([4]; preemergence, visual injury rating about 10 d after treatment, 0 to 100 scale (0 no effect, 100 complete control), read-out: Ryegrass, Italian plant response rating): 50%
Cc1cc(F)cc([C@H]2CN(C)C(=O)[C@@H]2C(=O)Nc2cccc(F)c2F)c1 [Compound 849]	80%	80%	90%	90%	40%	50%	80%	90%	80%	90%	–
CSc1ccccc1NC(=O)[C@H]1C(=O)NC[C@@H]1c1cccc2c1OC(F)(F)O2 [Compound 865]	0%	–	0%	80%	0%	0%	0%	0%	0%	0%	–
Cc1cc(F)cc([C@H]2CN(C)C(=O)[C@@H]2C(=O)Nc2ccccc2F)c1 [Compound 850]	30%	70%	90%	90%	20%	30%	0%	0%	70%	70%	–
CCc1ccc([C@H]2CNC(=O)[C@@H]2C(=O)Nc2ccccc2SC)cc1 [Compound 1178]	–	–	–	–	–	–	–	–	–	–	pest or weed control at 125 g/ha (Kochia (Kochia scoparia); [15]): 40%; pest or weed control at 500 g/ha (Kochia (Kochia scoparia); [5]): 70%; pest or weed control at 125 g/ha [1, 16]: 20%; pest or weed control at 500 g/ha [1, 7]: 70%; pest or weed control at 125 g/ha [2, 17]: 20%; pest or weed control at 500 g/ha [2, 9]: 50%; pest or weed control at 125 g/ha [3, 18]: 0%; pest or weed control at 500 g/ha [3, 11]: 50%; pest or weed control at 125 g/ha [4, 19]: 0%; pest or weed control at 500 g/ha [4, 13]: 20%
CN1C[C@H](c2cc(F)c(C(F)(F)F)c(F)c2)[C@@H](C(=O)Nc2ccccc2S(C)(=O)=O)C1=O [Compound 900]	90%	90%	90%	90%	80%	90%	50%	80%	60%	60%	–
CN1C[C@H](c2cccc(COC(F)F)c2)[C@@H](C(=O)Nc2ccccc2F)C1=O [Compound 875]	50%	80%	90%	90%	0%	0%	0%	50%	0%	30%	–
COc1cc(C(F)(F)F)ccc1[C@H]1CN(C)C(=O)[C@@H]1C(=O)Nc1cccc(F)c1F [Compound 859]	50%	60%	90%	90%	60%	80%	0%	50%	20%	80%	–
CSc1ccccc1NC(=O)[C@H]1C(=O)N(C)C[C@@H]1c1ccc(C(F)(F)F)nc1 [Compound 1198]	–	–	–	–	–	–	–	–	–	–	pest or weed control at 125 g/ha (Kochia (Kochia scoparia); preemergence, visual injury rating, 0 to 100 scale where 0 is no effect and 100 is complete control, approximately 10 d, read-out: Kochia plant response rating): 80%; pest or weed control at 500 g/ha (Kochia (Kochia scoparia); [5]): 80%; pest or weed control at 125 g/ha ([1]; preemergence, visual injury rating, 0 to 100 scale where 0 is no effect and 100 is complete control, approximately 10 d, read-out: Foxtail, Giant plant response rating): 100%; pest or weed control at 500 g/ha [1, 7]: 100%; pest or weed control at 125 g/ha ([2]; preemergence, visual injury rating, 0 to 100 scale where 0 is no effect and 100 is complete control, approximately 10 d, read-out: Pigweed plant response rating): 70%; pest or weed control at 500 g/ha [2, 9]: 100%; pest or weed control at 125 g/ha ([3]; preemergence, visual injury rating, 0 to 100 scale where 0 is no effect and 100 is complete control, approximately 10 d, read-out: Ragweed plant response rating): 70%; pest or weed control at 500 g/ha [3, 11]: 100%; pest or weed control at 125 g/ha ([4]; preemergence, visual injury rating, 0 to 100 scale where 0 is no effect and 100 is complete control, approximately 10 d, read-out: Ryegrass, Italian plant response rating): 30%; pest or weed control at 500 g/ha [4, 13]: 60%
CCOc1ccc([C@H]2CN(C)C(=O)[C@@H]2C(=O)Nc2ccc(F)cc2F)cc1 [Compound 905]	10%	90%	90%	90%	0%	0%	0%	0%	0%	0%	–

From patent US12077503B2, “Substituted cyclic amides and their use as herbicides” (FMC CORPORATION, priority 2015, dated 2024)
